According to publication PMC12692291, “Development and In Vitro Evaluation of [^64Cu]Cu-NOTA-TP-PSMA, a Novel Radiotheranostic Agent Against Prostate Cancer” (International Journal of Molecular Sciences, 2025):
Where two headings read alike, the source gives them in different places.

Legend:
LNCaP cells [1] = type: cell-based
Experimental: (§1) The cytotoxicity of compounds 1–3, ^natCu-NOTA-TP-PSMA, and cisplatin (platinum-based drug) were assessed with PrestoBlue, a resazurin-based method to assess mitochondrial function in LNCaP and HEK-293 cells at 24, 48, and 72 h. Effective concentration (EC50) values summarized in Table 3 were calculated from the dose–response curves of each compound (Figure S7).
(§2) Cytotoxicity was evaluated using a resazurin-based assay (PrestoBlue) in 96-well plates. LNCaP (15,000 cells/well) and HEK-293 (10,000 cells/well) were seeded and incubated for 72 h. Cells were then treated with serial dilutions of [^64Cu]Cu-NOTA-TP-PSMA and controls for 24, 48, or 72 h. After treatment, cells were rinsed with PBS and incubated with PrestoBlue reagent for 40 min. Fluorescence was measured at 570 nm (excitation) and 610 nm (emission). Background readings from blank wells were subtracted. Cell viability was calculated relative to untreated controls. IC50 values were determined using dose–response curves. Controls included [^64Cu]Cu-NOTA-TP, [^64Cu]Cu-NOTA-PSMA, ^natCu-NOTA-TP-PSMA, and cisplatin (0–500 µM in 0.9% saline). All assays were performed in triplicate and all data presented in Results are the average of three independent experiments. TP conjugates were dissolved in 1% DMSO and diluted in saline. Inhibitory concentration 50 (IC50) values were calculated to quantify the effectiveness of the compounds.

HEK-293 cells [2] = assay: PrestoBlue cytotoxicity assay in HEK-293 cells; type: cell-based, human; conditions: read-out: EC50 HEK293
Experimental: as §1, §2

HEK-293 cells [3] = assay: Efflux (retention) study in HEK-293 cells; type: cell-based, human; conditions: Table S3 second part (HEK-293)
Experimental: (§3) Efflux studies were conducted by incubating the cells with the compound for an initial period of 1 h, after which the incubation medium was replaced with fresh, compound-free medium. The retained intracellular radioactivity was then measured at various time points up to 24 h and expressed as the percentage of retention relative to the 0-h time point, defined as the time immediately after medium replacement.

LNCaP cells [4] = assay: Efflux (retention) study in LNCaP cells; type: cell-based; conditions: Table S3 first part (LNCaP)
Experimental: as §3

HEK-293 cells [5] = assay: Nuclear localization in HEK-293 cells; type: cell-based, human
Experimental: (§4) To assess nuclear localization, LNCaP and HEK-293 cells were incubated with 1 MBq of [^64Cu]Cu-NOTA-TP-PSMA 1 for 24, 48, and 72 h. Nuclear extraction was performed following a previously established protocol. Following incubation, cells were lysed and fractionated using cytoskeletal buffer to isolate nuclear components. Nuclear and cytoplasmic radioactivity were measured using a HIDEX automatic gamma counter. Data were used to evaluate time-dependent nuclear accumulation of the tracer.

LNCaP cells [6] = assay: Nuclear localization in LNCaP cells; type: cell-based
Experimental: as §4

LNCaP cells [7] = assay: Cellular uptake and internalization in LNCaP cells; type: cell-based; conditions: LNCaP, 24 h, 37 °C, 1 nM
Experimental: LNCaP cells (1 × 10^5 cells/well) were seeded into 24-well plates and incubated for 72 h. Cells were treated with 1nM [^64Cu]Cu-NOTA-TP-PSMA or control monomers ([^64Cu]Cu-NOTA-TP and [^64Cu]Cu-NOTA-PSMA), each containing 0.1 MBq of radioactivity in RPMI-1640 medium.
Uptake and internalization were assessed at multiple time points (30 min to 24 h). At each timepoint, cells were washed with cold PBS, detached with trypsin, and counted using a hemocytometer. For internalization studies, surface-bound radioactivity was removed using 50 mM glycine-HCl buffer (pH 2.2) for 5 min, followed by additional PBS washes.
To investigate the internalization mechanism, parallel experiments were conducted at 4 °C to evaluate passive versus active uptake. Receptor specificity was assessed via blocking assays using 1 µM ^natCu-NOTA-TP-PSMA (1000-fold excess) co-incubated with 1 nM radiolabeled tracer. Post-incubation, intracellular radioactivity was quantified using a HIDEX gamma counter. All results were normalized to 10^6 cells and expressed as percent counts per minute per million cells (%CPM/10^6 cells).

[8] = Solubility in aqueous media; type: physicochemical

N.N.[Cl][Pt][Cl] [Cisplatin, cisplatin, reference compound]
EC50 (LNCaP cells [1]; 24 h): 81 µM | EC50 (LNCaP cells [1]; 48 h): 30.4 µM | EC50 (LNCaP cells [1]; 72 h): 22.9 µM | EC50 (HEK-293 cells [2]; 24 h): 31.3 µM | EC50 (HEK-293 cells [2]; 48 h): 41 µM | EC50 (HEK-293 cells [2]; 72 h): 27.5 µM

O=C(O)CC[C@H](NC(=O)N[C@@H](CCCCNC(=O)[C@@H](Cc1ccc2ccccc2c1)NC(=O)[C@H]1CC[C@H](CNC(=O)CNC(=O)COCCOCCNC(=O)CN2CCN(CC(=O)O)CCN(CC(=O)O)CC2)CC1)C(=O)O)C(=O)O [[^64Cu]Cu-NOTA-PSMA 3, metal not drawn]
Retained activity (HEK-293 cells [3]; 0 h after medium replacement): 100 ± 0 %CPM/106 cells | Retained activity (HEK-293 cells [3]; 1 h): 59.4 ± 22.3 %CPM/106 cells | Retained activity (HEK-293 cells [3]; 2 h): 45.1 ± 14.5 %CPM/106 cells | Retained activity (HEK-293 cells [3]; 4 h): 38.4 ± 4.1 %CPM/106 cells | Retained activity (HEK-293 cells [3]; 24 h): 22.0 ± 1.5 %CPM/106 cells | Retained activity (LNCaP cells [4]; 0 h after medium replacement): 100 ± 0 %CPM/106 cells | Retained activity (LNCaP cells [4]; 1 h): 54.8 ± 10.0 %CPM/106 cells | Retained activity (LNCaP cells [4]; 2 h): 49.6 ± 8.1 %CPM/106 cells | Retained activity (LNCaP cells [4]; 4 h): 46.6 ± 8.1 %CPM/106 cells | Retained activity (LNCaP cells [4]; 24 h): 39.2 ± 7.9 %CPM/106 cells | fold less cytotoxic than compound 1 (LNCaP cells [1]): 5–16 fold | nuclear uptake in HEK-293 cells (HEK-293 cells [5]; 48 h): 0.13 ± 0.05% | nuclear uptake in HEK-293 cells (HEK-293 cells [5]; 72 h): 0.23 ± 0.04% | Nuclear uptake HEK-293 (HEK-293 cells [5]; Table S4, 24 h): 0.07 ± 0.05 %ID/10⁶ cells | Nuclear uptake HEK-293 (HEK-293 cells [5]; Table S4, 48 h): 0.13 ± 0.05 %ID/10⁶ cells | Nuclear uptake HEK-293 (HEK-293 cells [5]; Table S4, 72 h): 0.23 ± 0.04 %ID/10⁶ cells | nuclear uptake fold difference LNCaP vs HEK-293 (LNCaP cells [6]; 24 h): 5.8 fold | nuclear uptake in LNCaP cells (LNCaP cells [6]; 48 h): 0.30 ± 0.13% | nuclear uptake fold difference LNCaP vs HEK-293 (LNCaP cells [6]; 72 h): 1.5 fold | nuclear uptake in LNCaP cells (LNCaP cells [6]; 72 h): 0.35 ± 0.07% | Nuclear uptake LNCaP (LNCaP cells [6]; Table S4, 24 h): 0.44 ± 0.25 %ID/10⁶ cells | Nuclear uptake LNCaP (LNCaP cells [6]; Table S4, 48 h): 0.77 ± 1.02 %ID/10⁶ cells | Nuclear uptake LNCaP (LNCaP cells [6]; Table S4, 72 h): 0.35 ± 0.07 %ID/10⁶ cells | Internalization (LNCaP cells [7]): 16.7 ± 1.6 %CPM/10^6 cells | Uptake (LNCaP cells [7]): 22.8 ± 1.2 %CPM/10^6 cells

O=C(O)CC[C@H](NC(=O)N[C@@H](CCCCNC(=O)[C@@H](Cc1ccc2ccccc2c1)NC(=O)[C@H]1CC[C@H](CNC(=O)CNC(=O)COCCOCCNC(=O)CN2CCN(CC(=O)O)CCN(CC(=O)O)CC2)CC1)C(=O)O)C(=O)O [^natCu-NOTA-PSMA, metal not drawn]
solubility [8]: readily soluble in aqueous media

O=C(O)CC[C@H](NC(=O)N[C@@H](CCCCNC(=O)[C@@H](Cc1ccc2ccccc2c1)NC(=O)C1CCC(CNC(=O)C(CCCCNC(=O)c2cc3[n+]4c(c2)-c2cccc[n+]2[Pt-2]4([Cl])[n+]2ccccc2-3)NC(=O)COCCOCCNC(=O)CN2CCN3CCN(CC2)CC(=O)[O][Cu][O]C(=O)C3)CC1)C(=O)O)C(=O)O (stereo partly drawn) [^natCu-NOTA-TP-PSMA]
solubility [8]: reduced solubility
